pIC50: −log10 of the molar value.
Key:
Format in all cases: functional, cell-based
HeLa = test: Cytotoxicity against human HeLa cells after 44 hrs by SRB assay
MCF7 = test: Cytotoxicity against human MCF7 cells after 44 hrs by SRB assay; details: MCF7, 44 h
MKN-28 = test: Cytotoxicity against human MKN28 cells after 44 hrs by SRB assay; details: MKN-28, 44 h
KB = test: Cytotoxicity against human KB cells after 44 hrs by SRB assay

Structure (SMILES) | pIC50 (HeLa) | pIC50 (MCF7) | pIC50 (MKN-28) | pIC50 (KB)
CC(=O)O[C@H]1CC[C@@]2(C)C(=CC(=O)[C@H]3[C@@H]4CCC[C@@]4(C)CC[C@@H]32)C1 | 4.47 | 4.40 | 4.31 | 4.21
CC(=O)O[C@H]1CC[C@@]2(C)C(=C/C(=N\O)[C@H]3[C@@H]4CCC[C@@]4(C)CC[C@@H]32)C1 | 4.89 | 4.99 | 4.74 | 4.59
C[C@@]12CCC[C@H]1[C@@H]1C(=O)C=C3C=CCC[C@]3(C)[C@H]1CC2 | 4.20 | 4.28 | 4.19 | < 4.10
C[C@@]12CCC[C@H]1[C@@H]1/C(=N\O)C=C3C=CCC[C@]3(C)[C@H]1CC2 | 4.65 | 4.70 | 4.44 | 4.55
COc1cccc2c1C(=O)c1c(O)c3c(c(O)c1C2=O)C[C@@](O)(C(=O)CO)C[C@@H]3O[C@H]1C[C@H](N)[C@H](O)[C@H](C)O1 [DOXORUBICIN] |  |  | 6.66 | 7.55

From ChEMBL document CHEMBL2429712, “Synthesis and cytotoxicity of (3)-3-acetyloxy-5(6)-androsten-7-one oxime and 3,5(6)-androstadien-7-one oxime” (Med Chem Res, 2013)
